One assay relates to PC-3. The assay can be described thus: Cytotoxicity against human androgen receptor negative PC3 cells after 72 hrs by MTT assay. To be noted: PC-3, 72 h. Format: functional, cell-based. On the technique in general: Tetrazolium dyes change colour on reduction, which living cells bring about.
In another assay the test system is LNCaP. The assay can be described thus: Cytotoxicity against human androgen receptor positive LNCAP cells after 72 hrs by MTT assay. Format: functional, cell-based.

SMILES strings stand for the structures.

As to `C[C@]12CC[C@H]3[C@@H]([C@@H](C/C=C\C[C@H]4CC5=CC(=O)CC[C@]5(C)[C@H]5CC[C@]6(C)[C@@H](O)CC[C@H]6[C@H]45)CC4=CC(=O)CC[C@@]43C)[C@@H]1CC[C@@H]2O`, the IC50 – broadly, the concentration at which inhibition is half-maximal – worked out at 24.7 µM with PC-3 and 30.3 µM in the assay on LNCaP.

The compound `C[C@]12CC[C@H]3[C@@H]([C@@H](C/C=C/C[C@H]4CC5=CC(=O)CC[C@]5(C)[C@H]5CC[C@]6(C)[C@@H](O)CC[C@H]6[C@H]45)CC4=CC(=O)CC[C@@]43C)[C@@H]1CC[C@@H]2O` had an IC50 in the assay with PC-3 of 35.7 µM.

In the case of `CC(=O)O[C@]1(C(C)=O)CC[C@H]2[C@@H]3C=C(Cl)C4=CC(=O)[C@@H]5C[C@@H]5[C@]4(C)[C@H]3CC[C@@]21C` [CYPROTERONE ACETATE], the IC50 amounted to 32.3 µM with PC-3 and 43 µM in the assay with LNCaP.

For the origin of these results see ChEMBL document CHEMBL1156960, “First synthesis of separable isomeric testosterone dimers showing differential activities on prostate cancer cells” (Bioorg Med Chem Lett, 2010).
